Test results as given in PMC9090415, “Discovery of small molecule inhibitors of Plasmodium falciparum apicoplast DNA polymerase” (Journal of Enzyme Inhibition and Medicinal Chemistry, 2022).

Target: P. falciparum apicoplast DNA polymerase (Pf-apPOL) (Plasmodium falciparum, UniProt Q8ILY1)
Assay: Fluorescence-based high-throughput DNA polymerase assay (molecular beacon), primary screen and dose-response
Assay type: biochemical
Conditions: for DNA Pol: 90 min, 10 µM
Outline: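 Single-point screening used 10 µM compound with 20 nM polymerase, 20 nM hairpin substrate and 6 µM dNTPs for 90 min at 25 °C. Confirmatory titrations (2.5–80 µM) followed fluorescence at three times, and IC50 was derived from a fit including a cooperativity term n.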

[1] = "DNA Pol" of the 186 hits list (screen value)

Sequence of P. falciparum apicoplast DNA polymerase (Pf-apPOL) (Q8ILY1 entry or part of it): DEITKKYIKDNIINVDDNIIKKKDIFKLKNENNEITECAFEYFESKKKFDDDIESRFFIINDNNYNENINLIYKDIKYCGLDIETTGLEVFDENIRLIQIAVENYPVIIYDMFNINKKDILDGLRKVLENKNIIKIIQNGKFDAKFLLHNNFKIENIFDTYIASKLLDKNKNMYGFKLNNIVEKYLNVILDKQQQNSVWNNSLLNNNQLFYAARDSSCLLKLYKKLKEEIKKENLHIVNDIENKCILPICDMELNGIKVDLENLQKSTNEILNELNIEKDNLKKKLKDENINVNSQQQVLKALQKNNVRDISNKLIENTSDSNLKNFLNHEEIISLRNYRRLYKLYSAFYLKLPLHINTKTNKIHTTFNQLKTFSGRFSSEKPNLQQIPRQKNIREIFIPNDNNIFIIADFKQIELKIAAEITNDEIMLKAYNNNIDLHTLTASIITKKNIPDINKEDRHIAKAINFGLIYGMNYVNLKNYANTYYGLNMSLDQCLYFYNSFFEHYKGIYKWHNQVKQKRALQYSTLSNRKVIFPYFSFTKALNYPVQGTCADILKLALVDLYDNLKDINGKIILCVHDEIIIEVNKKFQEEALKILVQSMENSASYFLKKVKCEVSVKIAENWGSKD

O=C(NC(C(Cl)Cl)S(=O)(=O)c1ccccc1)c1ccccc1 (stereo not drawn) [KU0045239]
DNA Pol ('DNA Pol' of the 186 hits list (primary screen value)): 41 | DNA Pol (DNA Pol (primary screen value)): 41 | % inhibition Apo pol 10' (DRC-1, concentration 2.5): 21.4346% | % inhibition Apo pol 10' (DRC-1, concentration 5): 25.395% | % inhibition Apo pol 10' (DRC-1, concentration 10): 48.7805% | % inhibition Apo pol 10' (DRC-1, concentration 20): 67.0388% | % inhibition Apo pol 10' (DRC-1, concentration 40): 77.5747% | % inhibition Apo pol 10' (DRC-1, concentration 80): 80.3513% | % inhibition Apol 90' (DRC-1, concentration 2.5): 13.64% | % inhibition Apol 90' (DRC-1, concentration 5): 16.8163% | % inhibition Apol 90' (DRC-1, concentration 10): 39.9321% | % inhibition Apol 90' (DRC-1, concentration 20): 58.936% | % inhibition Apol 90' (DRC-1, concentration 40): 71.3995% | % inhibition Apol 90' (DRC-1, concentration 80): 76.3715% | % inhibition apPOL 180' (DRC-1, concentration 2.5): 5.305% | % inhibition apPOL 180' (DRC-1, concentration 5): 7.81% | % inhibition apPOL 180' (DRC-1, concentration 10): 29.3225% | % inhibition apPOL 180' (DRC-1, concentration 20): 48.9159% | % inhibition apPOL 180' (DRC-1, concentration 40): 64.7265% | % inhibition apPOL 180' (DRC-1, concentration 80): 71.27% | % inhibition Apo pol 5' (DRC-2, concentration 2.5): 4% | % inhibition Apo pol 5' (DRC-2, concentration 5): 18% | % inhibition Apo pol 5' (DRC-2, concentration 10): 26% | % inhibition Apo pol 5' (DRC-2, concentration 20): 59% | % inhibition Apo pol 5' (DRC-2, concentration 40): 65% | % inhibition Apo pol 5' (DRC-2, concentration 80): 46% | % inhibition Apol 40' (DRC-2, concentration 2.5): 11% | % inhibition Apol 40' (DRC-2, concentration 5): 25% | % inhibition Apol 40' (DRC-2, concentration 10): 36% | % inhibition Apol 40' (DRC-2, concentration 20): 69% | % inhibition Apol 40' (DRC-2, concentration 40): 76% | % inhibition Apol 40' (DRC-2, concentration 80): 62% | % inhibition ApPOL 90' (DRC-2, concentration 2.5): 11% | % inhibition ApPOL 90' (DRC-2, concentration 5): 24% | % inhibition ApPOL 90' (DRC-2, concentration 10): 35% | % inhibition ApPOL 90' (DRC-2, concentration 20): 68% | % inhibition ApPOL 90' (DRC-2, concentration 40): 76% | % inhibition ApPOL 90' (DRC-2, concentration 80): 64% | % inhibition apPOL 180' (DRC-2, concentration 2.5): 6.53% | % inhibition apPOL 180' (DRC-2, concentration 5): 11% | % inhibition apPOL 180' (DRC-2, concentration 10): 21% | % inhibition apPOL 180' (DRC-2, concentration 20): 58% | % inhibition apPOL 180' (DRC-2, concentration 40): 69% | % inhibition apPOL 180' (DRC-2, concentration 80): 58%

O=C1C(=Cc2ccccc2O)Oc2ccc(O)cc21 [KU0196475]
DNA Pol [1]: 17 | % inhibition Apo pol 10' (DRC-1, concentration 2.5): -5.1779% | % inhibition Apo pol 10' (DRC-1, concentration 5): -7.445% | % inhibition Apo pol 10' (DRC-1, concentration 10): 3.3875% | % inhibition Apo pol 10' (DRC-1, concentration 20): 10.6699% | % inhibition Apo pol 10' (DRC-1, concentration 40): 41.0111% | % inhibition Apo pol 10' (DRC-1, concentration 80): 68.8562% | % inhibition Apol 90' (DRC-1, concentration 2.5): -1.782% | % inhibition Apol 90' (DRC-1, concentration 5): -1.611% | % inhibition Apol 90' (DRC-1, concentration 10): 10.1306% | % inhibition Apol 90' (DRC-1, concentration 20): 24.1034% | % inhibition Apol 90' (DRC-1, concentration 40): 57.9717% | % inhibition Apol 90' (DRC-1, concentration 80): 77.3146% | % inhibition apPOL 180' (DRC-1, concentration 2.5): 3.033% | % inhibition apPOL 180' (DRC-1, concentration 5): 3.658% | % inhibition apPOL 180' (DRC-1, concentration 10): 21.7009% | % inhibition apPOL 180' (DRC-1, concentration 20): 41.2058% | % inhibition apPOL 180' (DRC-1, concentration 40): 72.3539% | % inhibition apPOL 180' (DRC-1, concentration 80): 79.2388% | % inhibition Apo pol 5' (DRC-2, concentration 2.5): -0.68% | % inhibition Apo pol 5' (DRC-2, concentration 5): 0.901% | % inhibition Apo pol 5' (DRC-2, concentration 10): 18% | % inhibition Apo pol 5' (DRC-2, concentration 20): 28% | % inhibition Apo pol 5' (DRC-2, concentration 40): 40% | % inhibition Apo pol 5' (DRC-2, concentration 80): 45% | % inhibition Apol 40' (DRC-2, concentration 2.5): 0.208% | % inhibition Apol 40' (DRC-2, concentration 5): -7.41% | % inhibition Apol 40' (DRC-2, concentration 10): 18% | % inhibition Apol 40' (DRC-2, concentration 20): 33% | % inhibition Apol 40' (DRC-2, concentration 40): 54% | % inhibition Apol 40' (DRC-2, concentration 80): 65% | % inhibition ApPOL 90' (DRC-2, concentration 2.5): 0% | % inhibition ApPOL 90' (DRC-2, concentration 5): -14% | % inhibition ApPOL 90' (DRC-2, concentration 10): 15% | % inhibition ApPOL 90' (DRC-2, concentration 20): 29% | % inhibition ApPOL 90' (DRC-2, concentration 40): 53% | % inhibition ApPOL 90' (DRC-2, concentration 80): 66% | % inhibition apPOL 180' (DRC-2, concentration 2.5): -3.48% | % inhibition apPOL 180' (DRC-2, concentration 5): -88% | % inhibition apPOL 180' (DRC-2, concentration 10): 8% | % inhibition apPOL 180' (DRC-2, concentration 20): 17% | % inhibition apPOL 180' (DRC-2, concentration 40): 45% | % inhibition apPOL 180' (DRC-2, concentration 80): 63% | DNA Pol (primary screen value, DNA Pol): 17

Cc1ccc2c(C(=O)NCCc3cccnc3)cc(NC(=O)C(C)C)cc2n1 [KU0206096]
DNA Pol [1]: 22 | % inhibition Apo pol 10' (DRC-1, concentration 2.5): 2.289% | % inhibition Apo pol 10' (DRC-1, concentration 5): 10.1779% | % inhibition Apo pol 10' (DRC-1, concentration 10): 28.6368% | % inhibition Apo pol 10' (DRC-1, concentration 20): 37.57% | % inhibition Apo pol 10' (DRC-1, concentration 40): 75.2311% | % inhibition Apo pol 10' (DRC-1, concentration 80): 89.4827% | % inhibition Apol 90' (DRC-1, concentration 2.5): -0.2653% | % inhibition Apol 90' (DRC-1, concentration 5): 3.264% | % inhibition Apol 90' (DRC-1, concentration 10): 15.2748% | % inhibition Apol 90' (DRC-1, concentration 20): 20.9182% | % inhibition Apol 90' (DRC-1, concentration 40): 58.3993% | % inhibition Apol 90' (DRC-1, concentration 80): 83.2702% | % inhibition apPOL 180' (DRC-1, concentration 2.5): -4.525% | % inhibition apPOL 180' (DRC-1, concentration 5): -3.235% | % inhibition apPOL 180' (DRC-1, concentration 10): 5.405% | % inhibition apPOL 180' (DRC-1, concentration 20): 7.166% | % inhibition apPOL 180' (DRC-1, concentration 40): 41.4073% | % inhibition apPOL 180' (DRC-1, concentration 80): 75.1879% | % inhibition Apo pol 5' (DRC-2, concentration 2.5): -0.312% | % inhibition Apo pol 5' (DRC-2, concentration 5): 5.56% | % inhibition Apo pol 5' (DRC-2, concentration 10): 24% | % inhibition Apo pol 5' (DRC-2, concentration 20): 40% | % inhibition Apo pol 5' (DRC-2, concentration 40): 49% | % inhibition Apo pol 5' (DRC-2, concentration 80): 49% | % inhibition Apol 40' (DRC-2, concentration 2.5): 1.82% | % inhibition Apol 40' (DRC-2, concentration 5): 5.58% | % inhibition Apol 40' (DRC-2, concentration 10): 24% | % inhibition Apol 40' (DRC-2, concentration 20): 42% | % inhibition Apol 40' (DRC-2, concentration 40): 62% | % inhibition Apol 40' (DRC-2, concentration 80): 70% | % inhibition ApPOL 90' (DRC-2, concentration 2.5): 1.09% | % inhibition ApPOL 90' (DRC-2, concentration 5): 5.45% | % inhibition ApPOL 90' (DRC-2, concentration 10): 21% | % inhibition ApPOL 90' (DRC-2, concentration 20): 39% | % inhibition ApPOL 90' (DRC-2, concentration 40): 63% | % inhibition ApPOL 90' (DRC-2, concentration 80): 75% | % inhibition apPOL 180' (DRC-2, concentration 2.5): -1.29% | % inhibition apPOL 180' (DRC-2, concentration 5): 2.66% | % inhibition apPOL 180' (DRC-2, concentration 10): 13% | % inhibition apPOL 180' (DRC-2, concentration 20): 28% | % inhibition apPOL 180' (DRC-2, concentration 40): 57% | % inhibition apPOL 180' (DRC-2, concentration 80): 78% | DNA Pol (primary screen value, DNA Pol): 22
